Data from ChEMBL document CHEMBL5325401, “Computer-aided identification, synthesis, and biological evaluation of DNA polymerase η inhibitors for the treatment of cancer” (Eur J Med Chem, 2023).
Values after ≈ are worked out from the molar mass of the structure shown. Active and inactive are the calls of the source. The rule behind the calls is not given here.

Experiments:
[1] = Kinetic solubility of compound in neutral buffer at pH 7.4 at 250 uM measured after 24 hrs by UPLC/MS analysis; assay type: physicochemical; settings: read-out: Kinetic_solubility
[2] = Metabolic stability in mouse plasma assessed as half life at 2 uM incubated upto 120 mins by UPLC/MS analysis; assay type: ADME, cell-free
OVCAR-3 [3] = experiment: Synergistic antiproliferative activity against human OVCAR-3 cells assessed as combination index at 75 uM incubated for 48 hrs in presence of 6 uM cisplatin by MTT assay; assay type: functional
A-375 [4] = experiment: Upregulation of phosphorylated gamma-H2AX level in human A375 cells incubated for 48 hrs by Western blot analysis; assay type: functional, cell-based; settings: dose 30.0 µM
A-375 [5] = experiment: Antiproliferative activity against human A-375 cells incubated for 48 hrs by MTT assay; assay type: functional; settings: read-out: LD50 (the source's name)
A549 [6] = experiment: Antiproliferative activity against human A549 cells assessed as cisplatin LD50 at 100 uM incubated for 48 hrs in presence of cisplatin by MTT assay; assay type: functional; settings: read-out: LD50 (the source's name)
A-375 [7] = experiment: Antiproliferative activity against human A-375 cells assessed as cisplatin LD50 at 50 uM incubated for 48 hrs in presence of cisplatin by MTT assay; assay type: functional; settings: read-out: LD50 (the source's name)
OVCAR-3 [8] = experiment: Antiproliferative activity against human OVCAR-3 cells incubated for 48 hrs by MTT assay; assay type: functional; settings: read-out: LD50 (the source's name)
A549 [9] = experiment: Synergistic antiproliferative activity against human A549 cells assessed as combination index at 50 uM incubated for 48 hrs in presence of 12.5 uM cisplatin by MTT assay; assay type: functional
OVCAR-3 [10] = experiment: Synergistic antiproliferative activity against human OVCAR-3 cells assessed as combination index at 50 uM incubated for 48 hrs in presence of 12.5 uM cisplatin by MTT assay; assay type: functional
A-375 [11] = experiment: Upregulation of phosphorylated gamma-H2AX level in human A375 cells at 30 uM incubated for 48 hrs by in presence of cisplatin by Western blot analysis; assay type: functional, cell-based
A-375 [12] = experiment: Synergistic antiproliferative activity against human A-375 cells assessed as combination index at 35 uM incubated for 48 hrs in presence of 12.5 uM cisplatin by MTT assay; assay type: functional
OVCAR-3 [13] = experiment: Antiproliferative activity against human OVCAR-3 cells assessed as cisplatin LD50 at 75 uM incubated for 48 hrs in presence of cisplatin by MTT assay; assay type: functional; settings: read-out: LD50 (the source's name)
OVCAR-3 [14] = experiment: Synergistic antiproliferative activity against human OVCAR-3 cells assessed as combination index at 50 uM incubated for 48 hrs in presence of 6 uM cisplatin by MTT assay; assay type: functional
OVCAR-3 [15] = experiment: Antiproliferative activity against human OVCAR-3 cells assessed as cisplatin LD50 at 50 uM incubated for 48 hrs in presence of cisplatin by MTT assay; assay type: functional; settings: read-out: LD50 (the source's name)
A549 [16] = experiment: Synergistic antiproliferative activity against human A549 cells assessed as combination index at 50 uM incubated for 48 hrs in presence of 6 uM cisplatin by MTT assay; assay type: functional
A-375 [17] = experiment: Synergistic antiproliferative activity against human A-375 cells assessed as combination index at 50 uM incubated for 48 hrs in presence of 12.5 uM cisplatin by MTT assay; assay type: functional
[18] = Upregulation of phosphorylated gamma-H2AX level in human OVCAR-3 cells assessed as fold increase in activity at 20 uM incubated for 24 hrs by in presence of cisplatin by immunofluorescence based microscopy relative to cisplatin; assay type: functional
[19] = (§1) Antiproliferative activity against HEK293 cells incubated for 48 hrs by MTT assay; assay type: toxicity, cell-based; settings: human, HEK293 cells, read-out: LD50
A549 [20] = experiment: Antiproliferative activity against human A549 cells incubated for 48 hrs by MTT assay; assay type: functional; settings: read-out: LD50 (the source's name)
[21] = Upregulation of phosphorylated gamma-H2AX level in human A375 cells assessed as fold increase in activity at 20 uM incubated for 24 hrs by in presence of cisplatin by immunofluorescence based microscopy relative to cisplatin; assay type: functional, A-375
[22] = Metabolic stability in mouse liver microsome assessed as half life at 4.6 uM incubated upto 60 mins by LC/MS-MS analysis; assay type: ADME; settings: liver microsomes
A-375 [23] = experiment: Antiproliferative activity against human A-375 cells assessed as cisplatin LD50 at 35 uM incubated for 48 hrs in presence of cisplatin by MTT assay; assay type: functional; settings: read-out: LD50 (the source's name)
OVCAR-3 [24] = experiment: Upregulation of phosphorylated gamma-H2AX level in human OVCAR-3 cells incubated for 48 hrs by Western blot analysis; assay type: functional, cell-based; settings: dose 30.0 µM
A-375 [25] = experiment: Synergistic antiproliferative activity against human A-375 cells assessed as combination index at 35 uM incubated for 48 hrs in presence of 6 uM cisplatin by MTT assay; assay type: functional
A549 [26] = experiment: Synergistic antiproliferative activity against human A549 cells assessed as combination index at 100 uM incubated for 48 hrs in presence of 12.5 uM cisplatin by MTT assay; assay type: functional
A549 [27] = experiment: Synergistic antiproliferative activity against human A549 cells assessed as combination index at 100 uM incubated for 48 hrs in presence of 6 uM cisplatin by MTT assay; assay type: functional
OVCAR-3 [28] = experiment: Synergistic antiproliferative activity against human OVCAR-3 cells assessed as combination index at 75 uM incubated for 48 hrs in presence of 12.5 uM cisplatin by MTT assay; assay type: functional
OVCAR-3 [29] = experiment: Antiproliferative activity against human OVCAR-3 cells assessed as cisplatin LD50 at 10 uM incubated for 48 hrs in presence of cisplatin by MTT assay; assay type: functional; settings: read-out: LD50 (the source's name)
A-375 [30] = experiment: Synergistic antiproliferative activity against human A-375 cells assessed as combination index at 50 uM incubated for 48 hrs in presence of 6 uM cisplatin by MTT assay; assay type: functional
A549 [31] = experiment: Antiproliferative activity against human A549 cells assessed as cisplatin LD50 at 50 uM incubated for 48 hrs in presence of cisplatin by MTT assay; assay type: functional; settings: read-out: LD50 (the source's name)
DNA polymerase eta = molecular target: T1, DNA polymerase eta (Homo sapiens, UniProt Q9Y253); experiment: Inhibition of C-terminal 6xHis-tagged human DNA polymerase eta (1 to 511 residues) expressed in Escherichia coli BL21 DE3 using 5'-IRD700-GCAGGTCGACTCCAAAG-3' primer/ 5'-TCGGTACCGGGTTAGCCTTTGGAGTCGACCTGC-3' template as DNA substrate incubated for 60 mins in presence of Mg2+ by bromophenol blue staining based assay
T1 sequence (Q9Y253 whole entry): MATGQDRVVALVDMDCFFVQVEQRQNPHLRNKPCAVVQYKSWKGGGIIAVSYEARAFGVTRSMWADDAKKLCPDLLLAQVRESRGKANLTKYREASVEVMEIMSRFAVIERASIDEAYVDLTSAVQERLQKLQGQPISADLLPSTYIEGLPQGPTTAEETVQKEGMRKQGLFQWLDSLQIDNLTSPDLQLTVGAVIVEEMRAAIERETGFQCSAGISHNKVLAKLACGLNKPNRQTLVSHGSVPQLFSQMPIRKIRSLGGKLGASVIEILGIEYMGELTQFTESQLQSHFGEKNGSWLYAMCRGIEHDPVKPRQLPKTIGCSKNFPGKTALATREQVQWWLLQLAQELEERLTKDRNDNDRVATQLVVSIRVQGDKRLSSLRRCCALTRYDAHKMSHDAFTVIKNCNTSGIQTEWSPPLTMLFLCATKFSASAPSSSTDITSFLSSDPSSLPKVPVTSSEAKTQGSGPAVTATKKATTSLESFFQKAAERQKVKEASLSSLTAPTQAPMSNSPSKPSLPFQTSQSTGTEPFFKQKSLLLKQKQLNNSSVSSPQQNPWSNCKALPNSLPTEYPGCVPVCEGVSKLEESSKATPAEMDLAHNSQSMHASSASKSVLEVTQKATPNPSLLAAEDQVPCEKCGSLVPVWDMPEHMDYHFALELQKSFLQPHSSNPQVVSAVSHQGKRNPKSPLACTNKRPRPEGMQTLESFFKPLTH

A549 [32] = experiment: Antiproliferative activity against human A549 cells assessed as cisplatin LD50 at 20 uM incubated for 48 hrs in presence of cisplatin by MTT assay; assay type: functional; settings: read-out: LD50 (the source's name)
OVCAR-3 [33] = experiment: Antiproliferative activity against human OVCAR-3 cells assessed as cisplatin LD50 at 5 uM incubated for 48 hrs in presence of cisplatin by MTT assay; assay type: functional; settings: read-out: LD50 (the source's name)
A549 [34] = experiment: Antagonistic antiproliferative activity against human A549 cells assessed as combination index at 20 uM incubated for 48 hrs in presence of 12.5 uM cisplatin by MTT assay; assay type: functional
A549 [35] = experiment: Antiproliferative activity against human A549 cells assessed as cisplatin LD50 at 30 uM incubated for 48 hrs in presence of cisplatin by MTT assay; assay type: functional; settings: read-out: LD50 (the source's name)
A-375 [36] = experiment: Antiproliferative activity against human A-375 cells assessed as cisplatin LD50 at 20 uM incubated for 48 hrs in presence of cisplatin by MTT assay; assay type: functional; settings: read-out: LD50 (the source's name)
OVCAR-3 [37] = experiment: Antagonistic antiproliferative activity against human OVCAR-3 cells assessed as combination index at 10 uM incubated for 48 hrs in presence of 12.5 uM cisplatin by MTT assay; assay type: functional
A549 [38] = experiment: Additive antiproliferative activity against human A549 cells assessed as combination index at 30 uM incubated for 48 hrs in presence of 6 uM cisplatin by MTT assay; assay type: functional
HEK293 = experiment: as §1; assay type: toxicity, cell-based; settings: human, hek293, 48 h
A-375 [39] = experiment: Additive antiproliferative activity against human A-375 cells assessed as combination index at 10 uM incubated for 48 hrs in presence of 6 uM cisplatin by MTT assay; assay type: functional
A-375 [40] = experiment: Antiproliferative activity against human A-375 cells assessed as cisplatin LD50 at 30 uM incubated for 48 hrs in presence of cisplatin by MTT assay; assay type: functional; settings: read-out: LD50 (the source's name)
A549 [41] = experiment: Additive antiproliferative activity against human A549 cells assessed as combination index at 30 uM incubated for 48 hrs in presence of 12.5 uM cisplatin by MTT assay; assay type: functional
[42] = Antiproliferative activity against HEK293 cells incubated for 72 hrs by MTT assay; assay type: toxicity, cell-based; settings: human, read-out: LD50
A-375 [43] = experiment: Antiproliferative activity against human A-375 cells assessed as cisplatin LD50 at 10 uM incubated for 48 hrs in presence of cisplatin by MTT assay; assay type: functional; settings: read-out: LD50 (the source's name)
A549 [44] = experiment: Additive antiproliferative activity against human A549 cells assessed as combination index at 20 uM incubated for 48 hrs in presence of 6 uM cisplatin by MTT assay; assay type: functional
OVCAR-3 [45] = experiment: Additive antiproliferative activity against human OVCAR-3 cells assessed as combination index at 10 uM incubated for 48 hrs in presence of 6 uM cisplatin by MTT assay; assay type: functional

Compound: O=c1c(OCCCO)c(-c2ccc(O)c(O)c2)oc2cc(O)cc(O)c12
- solubility kinetic at 24 h, 250 µM [1]: 231 µM (≈ 83.2 µg/mL)
- half-life at 2 µM [2]: 1.5 h
- CI (OVCAR-3 [3]): 0.5
- Activity (A-375 [4]): Dose-Dependent Effect
- CC50 (A-375 [5]): > 100 µM
- CC50 (A549 [6]): 9.4 µM
- CC50 (A-375 [7]): 1 µM
- CC50 (OVCAR-3 [8]): > 100 µM
- CI (A549 [9]): 0.8
- CI (OVCAR-3 [10]): 0.78
- Activity (A-375 [11]): Active
- CI (A-375 [12]): 0.78
- CC50 (OVCAR-3 [13]): 0.27 µM
- CI (OVCAR-3 [14]): 0.52
- CC50 (OVCAR-3 [15]): 2.8 µM
- CI (A549 [16]): 0.78
- CI (A-375 [17]): 0.23
- fold change (FC) [18]: >2
- CC50 at 48 h [19]: > 100 µM
- CC50 (A549 [20]): > 100 µM
- fold change (FC) [21]: >2
- half-life at 4.6 µM [22]: > 1 h
- CC50 (A-375 [23]): 2.6 µM
- Activity (OVCAR-3 [24]): Dose-Dependent Effect
- CI (A-375 [25]): 0.66
- CI (A549 [26]): 0.58
- CI (A549 [27]): 0.6
- CI (OVCAR-3 [28]): 0.72
- CC50 (OVCAR-3 [29]): 4.8 µM
- CI (A-375 [30]): 0.27
- CC50 (A549 [31]): 19.7 µM
- IC50 (DNA polymerase eta): 14.7 µM

Compound: COc1c(-c2ccc(O)c(O)c2)oc2cc(O)cc(O)c2c1=O [3-O-METHYLQUERCETIN]
- CC50 (A549 [32]): 11.9 µM
- CC50 (OVCAR-3 [33]): 4.8 µM
- solubility kinetic at 24 h, 250 µM [1]: 229 µM (≈ 72.4 µg/mL)
- half-life at 2 µM [2]: > 2 h
- CI (A549 [34]): 1.24
- CC50 (A-375 [5]): 29 µM
- CC50 (A549 [35]): 7.4 µM
- CC50 (OVCAR-3 [8]): 5.2 µM
- CC50 (A-375 [36]): 0.5 µM
- CI (OVCAR-3 [37]): 2.33
- CI (A549 [38]): 0.96
- CI (A-375 [17]): 0.78
- fold change (FC) [18]: >2
- Activity (HEK293): Non-Toxic
- CC50 (A549 [20]): 60 µM
- fold change (FC) [21]: >2
- half-life at 4.6 µM [22]: > 1 h
- CI (A-375 [39]): 0.96
- CC50 (A-375 [40]): 0.4 µM
- CI (A549 [41]): 0.94
- CC50 at 72 h [42]: 30.5 µM
- CC50 (A-375 [43]): 2 µM
- CI (A549 [44]): 1.03
- CC50 (OVCAR-3 [29]): 5.8 µM
- CI (OVCAR-3 [45]): 1.15
- IC50 (DNA polymerase eta): 10.8 µM
